In ChEMBL document CHEMBL1201862, “PubChem BioAssay data set” (2004):
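Step 1: Grow cells in 96-well plates. Step 2: Expose to compound for 48 hours at 5 concentrations. Step 3: Interpolate endpoints linearly; if unreached, use highest concentration. GI50 is the concentration that inhibits growth by half.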 Activity calls are given as the source filed them. Cut-off read from the data, not from the text of the source: active = GI50 up to about 1.1 µM and inactive = higher.

Experiments:
Assay in all cases: NCI anticancer screen, dose series, 48 h
OVCAR-8 = system: OVCAR-8
DMS-273 = system: DMS-273
M14 = system: M14
NCI-H226 = system: NCI-H226
K562 = system: K562
OVCAR-3 = system: OVCAR-3
A549 = system: A549
SK-OV-3 = system: SK-OV-3
RXF 393 = system: RXF 393
COLO 205 = system: COLO 205
TK-10 = system: TK-10
SF-539 = system: SF-539
A498 = system: A498
HL-60 = system: HL-60
BT-549 = system: BT-549
DU-145 = system: DU-145
MDA-MB-231 = system: MDA-MB-231
MDA-N = system: MDA-N
MDA-MB-435 = system: MDA-MB-435
T47D = system: T47D

Structure (SMILES)	GI50 (OVCAR-8)	GI50 (DMS-273)	GI50 (M14)	GI50 (NCI-H226)	GI50 (K562)	GI50 (OVCAR-3)	GI50 (A549)	GI50 (SK-OV-3)	GI50 (RXF 393)	GI50 (COLO 205)	GI50 (TK-10)	GI50 (SF-539)	GI50 (A498)	GI50 (HL-60)	GI50 (BT-549)	GI50 (DU-145)	GI50 (MDA-MB-231)	GI50 (MDA-N)	GI50 (MDA-MB-435)	GI50 (T47D)
N=C(N)NS(=O)(=O)c1ccc(NC(=O)c2cccc3cc4ccccc4nc23)cc1	14.5 µM (inactive)	> 100 µM (inactive)	> 100 µM (inactive)	9.75 µM (inactive)	53 µM (inactive)	> 100 µM (inactive)	> 100 µM (inactive)	> 100 µM (inactive)	> 100 µM (inactive)	> 100 µM (inactive)	> 100 µM (inactive)	25.5 µM (inactive)	> 100 µM (inactive)	–	–	–	–	–	–	–
O/N=C1/C(=C/c2ccc(OCc3ccccc3)cc2)CCCC1C(NO)c1ccc(OCc2ccccc2)cc1 (centres undefined)	26.7 µM (inactive)	13 µM (inactive)	4.98 µM (inactive)	> 100 µM (inactive)	9.53 µM (inactive)	14.2 µM (inactive)	> 100 µM (inactive)	> 100 µM (inactive)	3.42 µM (inactive)	16.9 µM (inactive)	–	24.9 µM (inactive)	> 100 µM (inactive)	5.57 µM (inactive)	–	–	–	–	–	–
Cc1nc(N)nc(N)c1CCCCc1ccccc1	8.2 µM (inactive)	4.7 µM (inactive)	6.21 µM (inactive)	–	0.841 µM (active)	9.95 µM (inactive)	3.67 µM (inactive)	31.9 µM (inactive)	11.1 µM (inactive)	8.43 µM (inactive)	43.2 µM (inactive)	10.7 µM (inactive)	18.2 µM (inactive)	4.55 µM (inactive)	–	–	–	–	–	–
C/C=N\N1C(=O)c2ccccc2C1=O	> 100 µM (inactive)	> 100 µM (inactive)	> 100 µM (inactive)	> 100 µM (inactive)	> 100 µM (inactive)	> 100 µM (inactive)	> 100 µM (inactive)	–	> 100 µM (inactive)	–	> 100 µM (inactive)	> 100 µM (inactive)	> 100 µM (inactive)	> 100 µM (inactive)	–	–	–	–	–	–
C=C[Si](C)(C)COC(=O)/C(C#N)=C/C=C/c1ccccc1	> 100 µM (inactive)	85.7 µM (inactive)	> 100 µM (inactive)	> 100 µM (inactive)	59 µM (inactive)	34.8 µM (inactive)	> 100 µM (inactive)	> 100 µM (inactive)	40.6 µM (inactive)	> 100 µM (inactive)	–	> 100 µM (inactive)	–	39.2 µM (inactive)	–	–	–	–	–	–
CC1OC(OC2C(CO)OC(O[C@H]3CC[C@@]4(C)C(=CC[C@H]5[C@@H]6C[C@@H]7O[C@]8(CC[C@@H](C)CN8)[C@@H](C)[C@@H]7[C@@]6(C)CC[C@@H]54)C3)C(O)C2O)C(O)C(O)C1O (some centres undefined)	> 100 µM (inactive)	> 100 µM (inactive)	> 100 µM (inactive)	–	> 100 µM (inactive)	> 100 µM (inactive)	> 100 µM (inactive)	> 100 µM (inactive)	> 100 µM (inactive)	> 100 µM (inactive)	> 100 µM (inactive)	> 100 µM (inactive)	> 100 µM (inactive)	> 100 µM (inactive)	–	–	–	–	–	–
COc1ccc([N+]2=NC(c3ccc([N+](=O)[O-])cc3)=NN(c3ccccc3)C2)cc1	> 10 µM (inactive)	> 10 µM (inactive)	–	52.4 µM (inactive)	21 µM (inactive)	42.5 µM (inactive)	71 µM (inactive)	–	> 100 µM (inactive)	68.2 µM (inactive)	> 100 µM (inactive)	–	41.6 µM (inactive)	18.6 µM (inactive)	–	–	–	–	–	–
CN/C(=N/C#N)NCc1ccccc1	> 100 µM (inactive)	> 100 µM (inactive)	> 100 µM (inactive)	> 100 µM (inactive)	–	> 100 µM (inactive)	> 100 µM (inactive)	> 100 µM (inactive)	–	> 100 µM (inactive)	> 100 µM (inactive)	> 100 µM (inactive)	> 100 µM (inactive)	> 100 µM (inactive)	–	–	–	–	–	–
COC(=O)C(=NNc1ccccc1[N+](=O)[O-])C(=O)OC	> 100 µM (inactive)	> 100 µM (inactive)	–	> 100 µM (inactive)	> 100 µM (inactive)	–	> 100 µM (inactive)	> 100 µM (inactive)	> 100 µM (inactive)	> 100 µM (inactive)	> 100 µM (inactive)	> 100 µM (inactive)	> 100 µM (inactive)	> 100 µM (inactive)	–	–	–	–	–	–
O=C(O)[C@H](NS(=O)(=O)c1ccc(F)cc1)c1ccccc1	> 100 µM (inactive)	> 100 µM (inactive)	> 100 µM (inactive)	> 100 µM (inactive)	> 100 µM (inactive)	> 100 µM (inactive)	> 100 µM (inactive)	> 100 µM (inactive)	> 100 µM (inactive)	> 100 µM (inactive)	> 100 µM (inactive)	> 100 µM (inactive)	–	–	–	–	–	–	–	–
CC(C)=CC(=O)CC(=O)C(=O)Nc1ccc(C)c(C)c1	–	> 100 µM (inactive)	> 100 µM (inactive)	> 100 µM (inactive)	> 100 µM (inactive)	> 100 µM (inactive)	> 100 µM (inactive)	> 100 µM (inactive)	–	–	> 100 µM (inactive)	> 100 µM (inactive)	–	> 100 µM (inactive)	–	–	–	–	–	–
Nc1c(-c2nc3ccccc3[nH]2)sc(=S)n1-c1ccccc1	> 100 µM (inactive)	> 100 µM (inactive)	> 100 µM (inactive)	> 100 µM (inactive)	53.8 µM (inactive)	51.2 µM (inactive)	> 100 µM (inactive)	> 100 µM (inactive)	46.9 µM (inactive)	> 100 µM (inactive)	–	> 100 µM (inactive)	> 100 µM (inactive)	> 100 µM (inactive)	–	–	–	–	–	–
Cc1nc2ccccc2nc1CC(=O)C(=O)Nc1ccc(Cl)cc1Cl	> 100 µM (inactive)	> 100 µM (inactive)	> 100 µM (inactive)	–	> 100 µM (inactive)	> 100 µM (inactive)	> 100 µM (inactive)	> 100 µM (inactive)	> 100 µM (inactive)	> 100 µM (inactive)	> 100 µM (inactive)	> 100 µM (inactive)	> 100 µM (inactive)	> 100 µM (inactive)	–	–	–	–	–	–
N=C(N)NS(=O)(=O)c1ccc(NC(=O)c2ccc3nc4ccccc4c(Nc4ccc(S(=O)(=O)N=C(N)N)cc4)c3c2)cc1	> 100 µM (inactive)	–	> 100 µM (inactive)	> 100 µM (inactive)	> 100 µM (inactive)	> 100 µM (inactive)	> 100 µM (inactive)	> 100 µM (inactive)	> 100 µM (inactive)	> 100 µM (inactive)	> 100 µM (inactive)	> 100 µM (inactive)	> 100 µM (inactive)	> 100 µM (inactive)	> 100 µM (inactive)	> 100 µM (inactive)	> 100 µM (inactive)	> 100 µM (inactive)	> 100 µM (inactive)	> 100 µM (inactive)
O=[N+]([O-])c1ccc(C2=Nn3cnnc3SC2)o1	20.1 µM (inactive)	17.6 µM (inactive)	15.1 µM (inactive)	26.4 µM (inactive)	21.5 µM (inactive)	17.1 µM (inactive)	20.6 µM (inactive)	> 10 µM (inactive)	18.4 µM (inactive)	–	39.7 µM (inactive)	17.6 µM (inactive)	16.3 µM (inactive)	14.8 µM (inactive)	–	–	–	–	–	–
CC(NC1=CC(=O)c2cccnc2C1=O)C(O)c1ccccc1 (centres undefined)	2.92 µM (inactive)	–	1.5 µM (inactive)	1.96 µM (inactive)	2.23 µM (inactive)	1.64 µM (inactive)	1.9 µM (inactive)	2.92 µM (inactive)	2.71 µM (inactive)	1.86 µM (inactive)	14.8 µM (inactive)	1.84 µM (inactive)	3.62 µM (inactive)	1.85 µM (inactive)	1.45 µM (inactive)	1.6 µM (inactive)	2.52 µM (inactive)	0.57 µM (active)	0.783 µM (active)	2.87 µM (inactive)
CCCN(CCC)C(=O)Cc1c2n(c3ccccc13)Cc1ccccc1-2	> 100 µM (inactive)	29.1 µM (inactive)	> 100 µM (inactive)	> 100 µM (inactive)	> 100 µM (inactive)	> 100 µM (inactive)	27.9 µM (inactive)	> 100 µM (inactive)	24.4 µM (inactive)	95.3 µM (inactive)	> 100 µM (inactive)	> 100 µM (inactive)	–	28.8 µM (inactive)	–	–	–	–	–	–
Cc1cc2nc3c(=O)[nH]c(=O)nc-3n(CC(O)C(O)C(O)CO)c2cc1N (centres undefined)	> 100 µM (inactive)	> 100 µM (inactive)	> 100 µM (inactive)	> 100 µM (inactive)	> 100 µM (inactive)	> 100 µM (inactive)	> 100 µM (inactive)	> 100 µM (inactive)	–	> 100 µM (inactive)	> 100 µM (inactive)	> 100 µM (inactive)	> 100 µM (inactive)	> 100 µM (inactive)	–	–	–	–	–	–
NNC(=O)N/N=C(/CC1(O)C(=O)Nc2ccc(Br)cc21)c1ccccc1 (centres undefined)	–	28.4 µM (inactive)	37.6 µM (inactive)	82.6 µM (inactive)	30.5 µM (inactive)	41.8 µM (inactive)	50 µM (inactive)	40.2 µM (inactive)	–	–	55.6 µM (inactive)	23.9 µM (inactive)	–	21.9 µM (inactive)	–	–	–	–	–	–
COc1ccc(NC(=O)/C(=C/c2ccccc2)C(C)=O)cc1	18.1 µM (inactive)	13.7 µM (inactive)	12.9 µM (inactive)	19.2 µM (inactive)	12.5 µM (inactive)	16.3 µM (inactive)	22.2 µM (inactive)	40.2 µM (inactive)	–	19.1 µM (inactive)	20.3 µM (inactive)	15.3 µM (inactive)	21.1 µM (inactive)	3.39 µM (inactive)	–	–	–	–	–	–
